According to patent publication US20260184726A1, “HETEROCYCLIC COMPOUNDS AS KINASE INHIBITORS, COMPOSITIONS, AND METHODS OF USE THEREOF” (JS INNOMED HOLDINGS LTD., priority 2022, published 2026):

Experiments:
BAF3 cells = test: BAF3 Cell Proliferation Assay (CellTiter-Glo, without RET driven, IL-3); type: cell-based; conditions: Mus musculus; growth inhibition in BAF3 cells, 72 hours, with IL-3; read-out: BAF3 Cellular Activity
Method: Compounds disclosed herein were tested for the inhibition BAF3 cells proliferation without RET driven by CellTiter-Glo assay. In this assay, a complete media was prepared by adding 10% fetal bovine serum and 1 ng/ml IL-3 to RPMI-1640 medium (Life technology) for BAF3 cells. BAF3 cells were added to each of 88 wells of a 96 well plate at a seeding density of 2,000 cells/well/95 μL. The cells were allowed to attach to the plate by incubating at 37° C. for 24 hours. The compound was dissolved in DMSO (SIGMA). A solution of test compound was prepared in complete media by serial dilution to obtain the following concentrations: 200 μM, 66.7 μM, 22.2 μM, 7.4 μM, 2.5 μM, 0.82 μM, 0.27 μM, 0.091 μM and […]. The test compound solution (5 μL) was added to each of 80 cell-containing wells. The final concentrations of the compound were following: 10 μM, 3.33 μM, 1.11 μM, 0.37 μM, 0.12 μM, 0.041 μM, 0.014 μM, 0.0046 μM and 0.0015 μM. The final concentration of DMSO is 0.1%. To the 8 remaining cell-containing wells, only complete media (containing 0.1% DMSO) was added to form a control group in order to measure maximal proliferation. To the remaining 8 empty wells, complete media was added to for a vehicle control group in order to measure background. The plates were incubated at 37° C. for 72 hours. 50 μl of CellTiter-Glo® Reagent was added to each well. The contents were mixed for 2 minutes on an orbital shaker to induce cell lysis, and then were incubated at room temperature for 10 minutes to stabilize luminescent signal. Luminescence was recorded on Paradigm. Cell viability (CV %) was calculated relative to vehicle (DMSO) treated control wells. The IC50 was calculated using GraphPad Prism.

BAF3-KIF5B-RET cells = molecular target: T1, BAF3-KIF5B-RET cells (Homo sapiens, UniProt P07949); test: BAF3-KIF5B-RET Cell Proliferation Assay (CellTiter-Glo); type: cell-based; conditions: growth inhibition, 72 hours; Table 2; read-out: BA/F3-KIF5B-RET Cellular activity
T1 construct: fused on or other part: P33176 (Kinesin-1 heavy chain)
T1 sequence (P07949 whole entry, change not shown, the tested form may be a part): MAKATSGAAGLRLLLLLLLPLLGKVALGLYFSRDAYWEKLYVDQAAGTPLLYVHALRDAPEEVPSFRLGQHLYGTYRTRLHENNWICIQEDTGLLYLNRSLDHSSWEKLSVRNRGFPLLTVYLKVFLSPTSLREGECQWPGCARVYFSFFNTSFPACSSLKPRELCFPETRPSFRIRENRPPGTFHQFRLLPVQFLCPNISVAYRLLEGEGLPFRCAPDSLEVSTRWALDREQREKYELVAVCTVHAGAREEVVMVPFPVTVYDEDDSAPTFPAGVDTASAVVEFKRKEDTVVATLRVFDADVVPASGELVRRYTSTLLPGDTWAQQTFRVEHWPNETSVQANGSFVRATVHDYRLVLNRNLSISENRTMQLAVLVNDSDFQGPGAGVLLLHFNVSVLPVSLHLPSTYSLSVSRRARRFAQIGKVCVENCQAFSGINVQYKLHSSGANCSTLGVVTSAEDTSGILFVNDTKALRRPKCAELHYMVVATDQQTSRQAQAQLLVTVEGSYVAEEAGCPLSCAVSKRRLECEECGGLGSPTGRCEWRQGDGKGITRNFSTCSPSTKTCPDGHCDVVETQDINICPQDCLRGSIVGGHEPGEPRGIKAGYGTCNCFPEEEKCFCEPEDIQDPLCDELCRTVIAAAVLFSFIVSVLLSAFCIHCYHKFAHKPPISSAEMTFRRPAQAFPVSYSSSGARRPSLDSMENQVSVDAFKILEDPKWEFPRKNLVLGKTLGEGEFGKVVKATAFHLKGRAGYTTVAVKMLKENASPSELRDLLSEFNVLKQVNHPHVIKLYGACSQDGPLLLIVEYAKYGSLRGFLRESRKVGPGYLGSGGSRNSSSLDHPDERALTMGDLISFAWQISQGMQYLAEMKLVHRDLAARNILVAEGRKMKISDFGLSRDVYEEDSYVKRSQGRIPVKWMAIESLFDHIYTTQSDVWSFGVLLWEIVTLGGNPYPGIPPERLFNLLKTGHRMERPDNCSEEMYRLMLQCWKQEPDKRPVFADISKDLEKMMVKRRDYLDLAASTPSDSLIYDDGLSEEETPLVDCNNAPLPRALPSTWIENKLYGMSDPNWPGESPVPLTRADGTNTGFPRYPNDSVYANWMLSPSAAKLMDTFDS
Method: Compounds disclosed herein were tested for the inhibition of RET by a cancer cell proliferation assay commonly known as CellTiter-Glo assay. In this assay, a complete media was prepared by adding 10% fetal bovine serum to RPMI-1640 medium (Life technology) for RET-driven cancer cells (BAF3-FIF5B-RET, Ba/F3-KIF5B-RET-G810R, Ba/F3-TEL-RET-M918T or Ba/F3-KIF5B-RET-V804M). Individual RET-driven type of cells were added to each of 88 wells of a 96 well plate at a seeding density of 2,000 cells/well/95 μL. The cells were allowed to attach to the plate by incubating at 37° C. for 24 hours. The compound was dissolved in DMSO (SIGMA). A solution of test compound was prepared in complete media by serial dilution to obtain the following concentrations: 20 μM, 6.67 μM, 2.22 μM, 0.74 μM, 0.25 μM, 0.082 μM, 0.027 μM, 0.0091 μM and 0.0030 μM. The test compound solution (5 μL) was added to each of 80 cell-containing wells. The final concentrations of the compound were following: 1 μM, 0.33 μM, 0.11 μM, 0.037 μM, 0.012 μM, 0.0041 μM, 0.0014 μM, 0.00046 μM and 0.00015 μM. The final concentration of DMSO is 0.1%. To the 8 remaining cell-containing wells, only complete media (containing 0.1% DMSO) was added to form a control group in order to measure maximal proliferation. To the remaining 8 empty wells, complete media was added to for a vehicle control group in order to measure background. The plates were incubated at 37° C. for 72 hours. 50 μl of CellTiter-Glo® Reagent was added to each well. Mix contents for 2 minutes on an orbital shaker to induce cell lysis. Incubate at room temperature for 10 minutes to stabilize luminescent signal. Record luminescence on Paradigm. Cell viability (CV %) was calculated relative to vehicle (DMSO) treated control wells. The IC50 was calculated using GraphPad Prism.

| Compound | IC50 (BAF3 cells) | GI50 (BAF3-KIF5B-RET cells) |
| --- | --- | --- |
| COc1ccc(CN2C3CC2CN(c2cnc(-c4cc(-c5ccc(C(C)(C)O)cn5)cn5ncc(C#N)c45)cn2)C3)cn1 [Example 1, 6-(5-(2-hydroxypropan-2-yl)pyridin-2-yl)-4-(5-(6-((6-methoxypyridin-3-yl)methyl)-3,6-diazabicyclo[3.1.1]heptan-3-yl)pyrazin-2-yl)pyrazolo[1,5-a]pyridine-3-carbonitrile] | 1020 nM | 1.8 nM |
| COc1ccc(C(=O)NC23CC4CC(C2)N(c2cnc(-c5cc(-c6ccc(C(C)(C)O)cn6)cn6ncc(C#N)c56)cn2)C(C4)C3)cn1 [Example 2, N-((1R,3S,5s,7s)-2-(5-(3-cyano-6-(5-(2-hydroxypropan-2-yl)pyridin-2-yl)pyrazolo[1,5-a]pyridin-4-yl)pyrazin-2-yl)-2-azaadamantan-5-yl)-6-methoxynicotinamide] | 362 nM | 8.9 nM |
| CC(C)(O)c1ccc(-c2cc(-c3ccc(N4C[C@@H]5[C@H](C4)[C@@H]5NC(=O)c4ncccc4Cl)nc3)c3c(C#N)cnn3c2)nc1 [Example 3, 3-chloro-N-((1R,5S,6r)-3-(5-(3-cyano-6-(5-(2-hydroxypropan-2-yl)pyridin-2-yl)pyrazolo[1,5-a]pyridin-4-yl)pyridin-2-yl)-3-azabicyclo[3.1.0]hexan-6-yl)picolinamide] | > 10000 nM | 110 nM |
| CC(C)(O)c1ccc(-c2cc(-c3cnc(N4C[C@@H]5C[C@@](C)(NC(=O)c6ncccc6Cl)C[C@@H]5C4)cn3)c3c(C#N)cnn3c2)nc1 [Example 6, 3-chloro-N-((3aR,5s,6aS)-2-(5-(3-cyano-6-(5-(2-hydroxypropan-2-yl)pyridin-2-yl)pyrazolo[1,5-a]pyridin-4-yl)pyrazin-2-yl)-5-methyloctahydrocyclopenta[c]pyrrol-5-yl)picolinamide] | 38.6 nM | 3.5 nM |
| COc1ccc(CN2C3CC2CN(c2ccc(-c4cc(-c5cncc(C(C)(C)O)c5)cn5ncc(C#N)c45)cn2)C3)cn1 [Example 7, 6-(5-(2-hydroxypropan-2-yl)pyridin-3-yl)-4-(6-(6-((6-methoxypyridin-3-yl)methyl)-3,6-diazabicyclo[3.1.1]heptan-3-yl)pyridin-3-yl)pyrazolo[1,5-a]pyridine-3-carbonitrile] | > 10000 nM | 48.1 nM |
| COc1ccc(CN2C3CC2CN(c2ccc(-c4cc(-c5ccc(C(C)(C)N)nc5)cn5ncc(C#N)c45)cn2)C3)cn1 [Example 14, 6-(6-(2-aminopropan-2-yl)pyridin-3-yl)-4-(6-(6-((6-methoxypyridin-3-yl)methyl)-3,6-diazabicyclo[3.1.1]heptan-3-yl)pyridin-3-yl)pyrazolo[1,5-a]pyridine-3-carbonitrile] | 1000 nM | 2.8 nM |
| COc1ccc(CN2C3CC2CN(c2ccc(-c4cc(-c5cnc(C(C)(C)O)cn5)cn5ncc(C#N)c45)cn2)C3)cn1 [Example 15, 6-(5-(2-hydroxypropan-2-yl)pyrazin-2-yl)-4-(6-(6-((6-methoxypyridin-3-yl)methyl)-3,6-diazabicyclo[3.1.1]heptan-3-yl)pyridin-3-yl)pyrazolo[1,5-a]pyridine-3-carbonitrile] | 2600 nM | 3.9 nM |
| COc1ccc(CN2C3CC2CN(c2ccc(-c4cc(-c5ccc(C(C)(C)N)cn5)cn5ncc(C#N)c45)cn2)C3)cn1 [Example 16, 6-(5-(2-aminopropan-2-yl)pyridin-2-yl)-4-(6-(6-((6-methoxypyridin-3-yl)methyl)-3,6-diazabicyclo[3.1.1]heptan-3-yl)pyridin-3-yl)pyrazolo[1,5-a]pyridine-3-carbonitrile] | 1080 nM | 2.2 nM |
| COc1ccc(CN2C3CC2CN(c2ccc(-c4cc(-c5ccc(C6(N)CC6)cn5)cn5ncc(C#N)c45)cn2)C3)cn1 [Example 17, 6-(5-(1-aminocyclopropyl)pyridin-2-yl)-4-(6-(6-((6-methoxypyridin-3-yl)methyl)-3,6-diazabicyclo[3.1.1]heptan-3-yl)pyridin-3-yl)pyrazolo[1,5-a]pyridine-3-carbonitrile] | 2770 nM | 4.2 nM |
